In patent publication US10988523B2, “Modified lipidated Relaxin B chain peptides and their therapeutic use” (Sanofi, priority 2018, dated 2021):
*1 amine or outer side, *2 acyl side, *3 side chain or, on linkers, in order; H or OH if unused. Where a SMILES comes first, the peptide text is derived from it. Side-chain parts run from the residue outwards. [ ]: non-standard residue; d: D form. The star is where a group is joined. γGlu = O=C(O)[C@H](CCC(=O)[*:2])N[*:1]; Palmitoyl = CCCCCCCCCCCCCCCC(=O)*; Nle = CCCC[C@H](N)C(=O)O; AEEA = NCCOCCOCC(=O)O; Aib = CC(C)(N)C(=O)O

Legend:
RXFP1 = biological target: T1, RXFP1 (Homo sapiens, UniProt Q9HBX9); assay: OVCAR5 cAMP assay (HTRF), RXFP1 agonist activity; assay type: cell-based; details: for Emax: OVCAR-5, maximal cAMP relative to H2-relaxin maximum (100%), read-out: EMax, OVCAR 5 cells (cAMP)
T1 construct: OVCAR5 cells expressing endogenous RXFP1; endogenous in cells; host or cells: OVCAR5 cells
T1 sequence (Q9HBX9 1-757): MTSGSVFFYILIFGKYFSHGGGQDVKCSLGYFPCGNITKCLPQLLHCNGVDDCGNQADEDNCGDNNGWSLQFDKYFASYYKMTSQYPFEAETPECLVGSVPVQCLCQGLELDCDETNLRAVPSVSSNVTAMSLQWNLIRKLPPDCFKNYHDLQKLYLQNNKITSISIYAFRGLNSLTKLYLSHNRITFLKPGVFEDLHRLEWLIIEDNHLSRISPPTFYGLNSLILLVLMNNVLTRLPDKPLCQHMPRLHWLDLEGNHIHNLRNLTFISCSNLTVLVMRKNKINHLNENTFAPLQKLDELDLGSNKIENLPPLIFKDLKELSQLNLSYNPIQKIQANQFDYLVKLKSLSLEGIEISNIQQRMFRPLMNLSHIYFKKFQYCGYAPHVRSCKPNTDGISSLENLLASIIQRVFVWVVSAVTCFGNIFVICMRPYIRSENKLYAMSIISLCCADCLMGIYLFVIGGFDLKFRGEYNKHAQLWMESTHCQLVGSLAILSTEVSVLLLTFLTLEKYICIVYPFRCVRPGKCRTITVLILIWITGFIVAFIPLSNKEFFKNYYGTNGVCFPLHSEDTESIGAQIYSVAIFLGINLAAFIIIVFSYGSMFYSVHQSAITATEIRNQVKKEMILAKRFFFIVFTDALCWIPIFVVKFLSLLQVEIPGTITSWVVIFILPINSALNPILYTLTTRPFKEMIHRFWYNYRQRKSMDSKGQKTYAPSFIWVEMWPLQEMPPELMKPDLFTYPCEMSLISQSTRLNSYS
In short: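 cAMP accumulation readout: after 1 mM IBMX for 40 min, endogenous-RXFP1 OVCAR5 cells got rising peptide concentrations without FCS, 30 min, 37° C, then lysis with HTRF cAMP reagents. Nonlinear regression gave EC50; Emax expressed relative to H2-relaxin maximum, same occasion.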

[1] = Stability testing of peptides in human plasma or blood; assay type: in vitro ADME; details: 37° C.; for Human Plasma stability % remaining T = 0: human plasma or blood, T = 0 (reference), 5 μM
Experimental: (§1) Prior to the testing of stability in plasma (or blood) of a peptide batch, its purity (HPLC-UV) was determined.
(§2) Rat and Human plasma: anti-coagulant sodium or lithium heparin.
(§3) Rat and Human blood: anti-coagulant sodium or lithium heparin. • Stock solution: • 100 μM solution of study compound in 50 mM Phosphate buffer pH 7.4. • 950 μL plasma (or blood) was pre-incubated for 5 min at 37° C. 50 μL of compound stock solution was added. Final compound concentration=5 μM. Vortex and transfer 1504, plasma (or blood) into an Eppendorf for each time point. The time points […] were carried out in duplicate for each species.
(§4) After incubation 150 μL, plasma (or blood) was extracted with 600 μL, Acetonitrile containing with 1% TFA. Then, vortexed and centrifuged 10 min at 14600 rpm. 200 μL supernatant was dried under N2. The sample was reconstituted in 200 μL of H2O/CH3CN 98/2+0.1% FA+50 ng/ml Labetalol and analyzed using the analytical system used in solubility and stability studies.
(§5) For determination of the amount of the remaining peptide, the peak areas of the target compound at t0 and each time point […] were compared, resulting in “% remaining peptide”, following the equation: % remaining peptide=[(peak area peptide time)×100]/peak area peptide t0. The stability is expressed as “% remaining peptide”.

[2] = Stability testing of peptides in rat plasma or blood; assay type: in vitro ADME; details: 37° C.; for Rat plasma stability % remaining T = 0: rat plasma or blood, T = 0 (reference), 5 μM
Experimental: as §1, §2, §3, §4, §5

[3] = Pharmacokinetic (PK) determination after i.v. or s.c. administration to rats; assay type: in vivo, Sprague Dawley rats; details: Sprague Dawley, Rat PK; for C0 / half-life: iv, 1 mg/kg i.v.; for C0: extrapolated plasma concentration at t=0, read-out: C0; for half-life / Cmax / Tmax / bioavailability: plasma; for half-life: read-out: T½ (converted); for Cmax / Tmax: sc, 3 mg/kg s.c.; for bioavailability: subcutaneous, 3 mg/kg s.c. vs 1 mg/kg i.v., dose-corrected AUC ratio
In short: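 Non-compartmental analysis of plasma LC/MS data (protein precipitation, BLQ taken as zero) gave T½, C0 (i.v.), Cmax/Tmax (s.c.) and F% from dose-corrected AUCs. Dosing: 3 mg/kg s.c. or 1 mg/kg i.v. in PBS to Sprague Dawley rats, purity- and salt-corrected.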

SMILES	Emax (RXFP1) [%]	Human Plasma stability % remaining T = 0 [1] [%]	remaining at 1 h, 5 µM ([1]; whole blood, human blood, read-out: Human stability in blood % remaining 1 h) [%]	remaining at 4 h, 5 µM ([1]; whole blood, human blood, read-out: Human stability in blood % remaining 4 h) [%]	Rat plasma stability % remaining T = 0 [2] [%]	remaining at 1 h, 5 µM ([2]; whole blood, rat blood, read-out: Rat stability in blood % remaining 1 h) [%]	remaining at 4 h, 5 µM ([2]; whole blood, rat blood, read-out: Rat stability in blood % remaining 4 h) [%]	C0 [3] [nM]	half-life [3] [h]	Cmax [3] [nM]	Tmax [3] [h]	bioavailability [3] [%]	EC50 (RXFP1; OVCAR5 cells, cAMP HTRF, read-out: EC50 (nM), OVCAR 5 cells (cAMP)) [nM]	remaining at 1 h, 5 µM ([1]; human plasma, read-out: Human Plasma stability % remaining 1 h) [%]	remaining at 4 h, 5 µM ([1]; human plasma, read-out: Human Plasma stability % remaining 4 h) [%]	remaining at 1 h, 5 µM ([2]; rat plasma, read-out: Rat plasma stability % remaining 1 h) [%]	remaining at 4 h, 5 µM ([2]; rat plasma, read-out: Rat plasma stability % remaining 4 h) [%]
CCCCCCCCCCCCCCCC(=O)N[C@@H](CCC(=O)N[C@@H](CCC(=O)N[C@@H](CCC(=O)NCCOCCOCC(=O)NCCOCCOCC(=O)NCCOCCOCC(=O)NCCCC[C@H](NC(=O)[C@H](CCCCNC(C)=O)NC(=O)[C@H](CCCCN)NC(=O)[C@H](CCCNC(=N)N)NC(=O)C(C)(C)NC(=O)[C@H](CO)NC(=O)[C@H](Cc1c[nH]c2ccccc12)NC(=O)[C@@H](NC(=O)[C@H](CO)NC(=O)[C@H](CCCC)NC(=O)CNC(=O)[C@H](CCC(=O)O)NC(=O)C(C)(C)NC(=O)C(C)(C)NC(=O)[C@@H](NC(=O)[C@H](CCCCNC(C)=O)NC(=O)[C@H](C)NC(=O)[C@H](CCCNC(=N)N)NC(=O)[C@@H](NC(=O)[C@H](CCCCN)NC(=O)[C@H](CCC(=O)O)NC(=O)[C@H](CCCNC(=N)N)NC(=O)CNC(=O)[C@H](CCC(=O)O)NC(=O)[C@H](CC(C)C)NC(C)=O)C(C)C)[C@@H](C)CC)[C@@H](C)O)C(N)=O)C(=O)O)C(=O)O)C(=O)O [compound 63] (Ac-LEGREKVRAK(Ac)I[Aib][Aib]EG[Nle]STWS[Aib]RKK(Ac)K([AEEA-AEEA-AEEA-γGlu-γGlu-γGlu-Palmitoyl])-NH2)	80	100	93	87	100	95	79	6020	5.72	2400	10	47	–	–	–	–	–
CCCCCCCCCCCCCCCC(=O)N[C@@H](CCC(=O)NCCCC[C@H](NC(=O)CC[C@H](NC(=O)CC[C@H](NC(=O)CC[C@H](NC(=O)COCCOCCNC(=O)COCCOCCNC(=O)COCCOCCNC(=O)[C@H](CCCCN)NC(=O)[C@H](CCCCN)NC(=O)[C@H](CCCCN)NC(=O)[C@H](CCCNC(=N)N)NC(=O)C(C)(C)NC(=O)[C@H](CO)NC(=O)[C@H](Cc1c[nH]c2ccccc12)NC(=O)[C@@H](NC(=O)[C@H](CO)NC(=O)[C@H](CCCC)NC(=O)CNC(=O)[C@H](CCC(=O)O)NC(=O)C(C)(C)NC(=O)C(C)(C)NC(=O)[C@@H](NC(=O)[C@H](CCC(N)=O)NC(=O)[C@H](C)NC(=O)[C@H](CCCNC(=N)N)NC(=O)[C@@H](NC(=O)[C@H](CCCCN)NC(=O)[C@H](CCC(=O)O)NC(=O)[C@H](CCCNC(=N)N)NC(=O)CNC(=O)[C@H](CCC(=O)O)NC(=O)[C@H](CC(C)C)NC(C)=O)C(C)C)[C@@H](C)CC)[C@@H](C)O)C(=O)O)C(=O)O)C(=O)O)C(N)=O)C(=O)O [compound 107] (Ac-LEGREKVRAQI[Aib][Aib]EG[Nle]STWS[Aib]RKKK[AEEA][AEEA][AEEA][γGlu][γGlu][γGlu]K([γGlu-Palmitoyl])-NH2)	85	100	–	–	100	–	–	2600	2.5	1600	8	27	0.63	98	106	93	110
